Data taken from publication PMC5518309 (ChemMedChem, 2014).
Numbered stars: 1 amine (or outer) side, 2 acyl side, 3 side chain; on linkers, the order of the positions; unused ones are H or OH. Side chains are listed from the residue outwards. Peptide text beside a SMILES is read from it. * marks the point of attachment. X1 = CN(C)c1ccc2c(c1)Oc1cc(N(C)C)ccc1C21OC(=O)c2ccc(C(=O)*)cc21; γGlu = O=C(O)[C@H](CCC(=O)[*:2])N[*:1]; Propionyl = CCC(=O)*

What was measured:
hY4R = hY4R (Homo sapiens, UniProt P50391); test: Radioligand binding assay, displacement of [3H]-hPP
[1] = Stability test in human blood plasma; format: in vitro ADME; settings: human
[2] = Metabolic stability in porcine liver homogenates; format: in vitro ADME; settings: pig, porcine liver homogenate (supernatant)

Chain of hY4R (P50391 whole entry): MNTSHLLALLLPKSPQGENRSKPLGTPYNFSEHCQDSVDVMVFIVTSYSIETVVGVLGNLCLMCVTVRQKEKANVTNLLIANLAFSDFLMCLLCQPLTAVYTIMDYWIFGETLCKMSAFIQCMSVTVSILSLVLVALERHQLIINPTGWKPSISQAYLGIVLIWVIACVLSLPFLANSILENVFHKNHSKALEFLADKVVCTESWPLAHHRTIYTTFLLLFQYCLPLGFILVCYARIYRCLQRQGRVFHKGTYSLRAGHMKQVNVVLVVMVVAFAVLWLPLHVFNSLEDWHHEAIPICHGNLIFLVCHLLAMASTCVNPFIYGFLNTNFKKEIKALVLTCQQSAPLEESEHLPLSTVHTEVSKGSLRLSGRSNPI

## CCCCCCCCCCCCCCCC(=O)N[C@@H](CCC(=O)NCCCC[C@H](NC(=O)[C@H](CC(N)=O)NC(=O)[C@@H](NC(=O)[C@H](Cc1ccc(O)cc1)NC(=O)[C@H](CCCNC(=N)N)NC(=O)[C@H](CCCNC(=N)N)NC(=O)[C@H](CC(C)C)NC(=O)[C@H](CC(=O)O)NC(=O)[C@H](C)NC(=O)[C@H](C)NC(=O)[C@H](Cc1ccc(O)cc1)NC(=O)[C@H](CCC(N)=O)NC(=O)[C@H](C)NC(=O)[C@H](CCSC)NC(=O)[C@H](CCC(N)=O)NC(=O)[C@H](CCC(=O)O)NC(=O)[C@@H]1CCCN1C(=O)[C@@H](NC(=O)[C@H](C)NC(=O)[C@H](CC(N)=O)NC(=O)[C@H](CC(=O)O)NC(=O)CNC(=O)[C@@H]1CCCN1C(=O)[C@H](Cc1ccc(O)cc1)NC(=O)[C@@H](NC(=O)[C@@H]1CCCN1C(=O)[C@H](CCC(=O)O)NC(=O)[C@H](CC(C)C)NC(=O)[C@@H]1CCCN1C(=O)[C@H](C)NC(=O)c1ccc2c(c1)C(=O)OC21c2ccc(O)cc2Oc2cc(O)ccc21)C(C)C)[C@@H](C)O)[C@@H](C)CC)C(=O)N[C@@H](CC(C)C)C(=O)N[C@H](C(=O)N[C@@H](CCCNC(=N)N)C(=O)N1CCC[C@H]1C(=O)N[C@@H](CCCNC(=N)N)C(=O)N[C@@H](Cc1ccc(O)cc1)C(N)=O)[C@@H](C)O)C(=O)O [compound 6, CF-[K^30(E-Pam)]hPP]
hY4R
  IC50: 14.9 nM

## CCCCCCCCCCCCCCCC(=O)N[C@@H](CCC(=O)NCCCC[C@H](NC(=O)[C@@H](NC(=O)[C@@H]1CCCN1C(=O)[C@H](CCC(=O)O)NC(=O)[C@H](CC(C)C)NC(=O)[C@@H]1CCCN1C(=O)[C@H](C)NC(=O)c1ccc2c(c1)C(=O)OC21c2ccc(O)cc2Oc2cc(O)ccc21)C(C)C)C(=O)N1CCC[C@H]1C(=O)NCC(=O)N[C@@H](CC(=O)O)C(=O)N[C@@H](CC(N)=O)C(=O)N[C@@H](C)C(=O)N[C@H](C(=O)N1CCC[C@H]1C(=O)N[C@@H](CCC(=O)O)C(=O)N[C@@H](CCC(N)=O)C(=O)N[C@@H](CCSC)C(=O)N[C@@H](C)C(=O)N[C@@H](CCC(N)=O)C(=O)N[C@@H](Cc1ccc(O)cc1)C(=O)N[C@@H](C)C(=O)N[C@@H](C)C(=O)N[C@@H](CC(=O)O)C(=O)N[C@@H](CC(C)C)C(=O)N[C@@H](CCCNC(=N)N)C(=O)N[C@@H](CCCNC(=N)N)C(=O)N[C@@H](Cc1ccc(O)cc1)C(=O)N[C@H](C(=O)N[C@@H](CC(N)=O)C(=O)N[C@@H](CCSC)C(=O)N[C@@H](CC(C)C)C(=O)N[C@H](C(=O)N[C@@H](CCCNC(=N)N)C(=O)N1CCC[C@H]1C(=O)N[C@@H](CCCNC(=N)N)C(=O)N[C@@H](Cc1ccc(O)cc1)C(N)=O)[C@@H](C)O)[C@@H](C)CC)[C@@H](C)O)C(=O)O [compound 3, CF-[K^7(E-Pam)]hPP]
hY4R
  IC50: 401 nM

## CCC(=O)N[C@@H](CCC(=O)NCCCC[C@H](NC(=O)[C@H](CC(N)=O)NC(=O)[C@@H](NC(=O)[C@H](Cc1ccc(O)cc1)NC(=O)[C@H](CCCNC(=N)N)NC(=O)[C@H](CCCNC(=N)N)NC(=O)[C@H](CC(C)C)NC(=O)[C@H](CC(=O)O)NC(=O)[C@H](C)NC(=O)[C@H](C)NC(=O)[C@H](Cc1ccc(O)cc1)NC(=O)[C@H](CCC(N)=O)NC(=O)[C@H](C)NC(=O)[C@H](CCSC)NC(=O)[C@H](CCC(N)=O)NC(=O)[C@H](CCC(=O)O)NC(=O)[C@@H]1CCCN1C(=O)[C@@H](NC(=O)[C@H](C)NC(=O)[C@H](CC(N)=O)NC(=O)[C@H](CC(=O)O)NC(=O)CNC(=O)[C@@H]1CCCN1C(=O)[C@H](Cc1ccc(O)cc1)NC(=O)[C@@H](NC(=O)[C@@H]1CCCN1C(=O)[C@H](CCC(=O)O)NC(=O)[C@H](CC(C)C)NC(=O)[C@@H]1CCCN1C(=O)c1ccc2c(c1)C1(OC2=O)c2ccc(N(C)C)cc2Oc2cc(N(C)C)ccc21)C(C)C)[C@@H](C)O)[C@@H](C)CC)C(=O)N[C@@H](CC(C)C)C(=O)N[C@H](C(=O)N[C@@H](CCCNC(=N)N)C(=O)N1CCC[C@H]1C(=O)N[C@@H](CCCNC(=N)N)C(=O)N[C@@H](Cc1ccc(O)cc1)C(N)=O)[C@@H](C)O)C(=O)O [15b, TAMRA-[K^30(E-Prop)]hPP2–36] (X1-PLEPVYPGDNATPEQMAQYAADLRRYINK([γGlu-Propionyl])LTRPRY-NH2)
[1]
  half-life at 10 μM: 19.7 ± 0.721 days
[2]
  half-life at 10 μM: 1.95 ± 0.275 days
